PubChem BioAssay (NCI)
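How tested: cells in 96-well plates exposed to compound for 48 hours at five concentrations. Abbreviation: GI50, concentration required for 50% inhibition of growth. At the TGI there is no net growth.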

Columns and labels:
Assay in all cases: NCI-60 cell line screen, 48 h
MALME-3M melanoma = system: MALME-3M melanoma
NCI-H522 lung = system: NCI-H522 lung
HOP-62 NSCLC = system: HOP-62 NSCLC
NCI-H226 lung = system: NCI-H226 lung
SR leukemia = system: SR leukemia
TK-10 renal = system: TK-10 renal
SK-MEL-28 melanoma = system: SK-MEL-28 melanoma
SF-268 CNS = system: SF-268 CNS
HS 578T breast = system: HS 578T breast
A498 renal = system: A498 renal

Structure (SMILES) | GI50 (MALME-3M melanoma) [µM] | TGI (MALME-3M melanoma) [µM] | GI50 (NCI-H522 lung) [µM] | GI50 (HOP-62 NSCLC) [µM] | TGI (HOP-62 NSCLC) [µM] | TGI (NCI-H226 lung) [µM] | GI50 (SR leukemia) [µM] | GI50 (TK-10 renal) [µM] | TGI (TK-10 renal) [µM] | GI50 (SK-MEL-28 melanoma) [µM] | TGI (SK-MEL-28 melanoma) [µM] | GI50 (SF-268 CNS) [µM] | TGI (SF-268 CNS) [µM] | GI50 (HS 578T breast) [µM] | TGI (HS 578T breast) [µM] | GI50 (A498 renal) [µM] | TGI (A498 renal) [µM] | GI50 (NCI-H226 lung) [µM] | TGI (SR leukemia) [µM] | TGI (NCI-H522 lung) [µM]
COc1cccc(CNc2ncnc3c2ncn3C2OC(CO)C(O)C2O)c1O (stereo unspecified) | 0.259 | 4.38 | 0.0848 | 0.387 | > 100 | > 100 | 0.0651 | 0.058 | 1.38 | 1.55 | > 100 | 0.257 | > 100 | 0.108 | 0.577 | 0.205 | 2.21 | – | – | –
CCOC(=O)c1ccc(NC(=O)NC2=NCCS2)cc1 | 0.465 | > 100 | 0.352 | 1.75 | > 100 | > 100 | 0.973 | > 100 | > 100 | 64.9 | > 100 | 3.5 | > 100 | 1.97 | > 100 | 0.34 | 2.24 | 3.14 | > 100 | –
Clc1ccc(/C=C/c2ccc3ccccc3n2)cc1 | 0.934 | 71.8 | 0.255 | > 100 | > 100 | > 100 | 0.443 | 5.24 | > 100 | 3.18 | > 100 | 0.641 | > 88.3 | 0.617 | 10.5 | 0.306 | > 100 | 25 | 4.12 | 0.763
C=C1C(=O)O[C@H]2[C@H]1CC/C(COC(=O)N[C@H]1C[C@H](O[C@H]3C[C@](O)(C(=O)CO)Cc4c(O)c5c(c(O)c43)C(=O)c3c(OC)cccc3C5=O)O[C@@H](C)[C@H]1O)=C\CC[C@@]1(C)O[C@@H]21 | 0.879 | 1.9 | 0.772 | 22.7 | > 50 | 12.6 | 1.02 | 9 | > 50 | 1.51 | 4.67 | 6.72 | 24.6 | 9.93 | 34 | 6.85 | 29.4 | 5.33 | 7.12 | 1.68
Cc1cc(CCl)c(C)cc1CCl | 1.96 | 5.46 | 1.7 | 1.58 | 3.79 | 16 | 0.114 | 1.97 | 5.05 | 2.49 | 6.66 | 1.02 | 6.08 | 2.4 | 8.21 | 1.79 | 3.96 | 2.89 | 8.83 | 3.57
COc1ccc(C(=O)c2sc3nc(-c4ccccc4OC)ccc3c2N)cc1OC | 3.65 | > 100 | 2.5 | 18.7 | > 100 | > 100 | 7.3 | 4.87 | 33.4 | > 100 | > 100 | 11.9 | > 100 | 4.26 | 74.2 | 3.38 | > 100 | 5.13 | > 100 | 8.89
COc1ccc2c(c1)CN([C@@H](C)[C@H]1CC[C@H]3[C@@H]4CC[C@H]5C[C@@H](O)CC[C@]5(C)[C@H]4CC[C@]13C)CO2 | – | 3.47 | – | – | 4 | 24.3 | – | – | 8.32 | – | 5.98 | – | 7.38 | – | 4.14 | – | 3.45 | – | 2.61 | 4.21
CN(C)N1C(=O)SCC(c2ccccc2)(c2ccccc2)C1=O | – | > 100 | – | – | > 100 | > 100 | – | – | > 100 | – | > 100 | – | > 100 | – | > 100 | – | > 100 | – | > 100 | > 100
C=C1C(=O)OC2C1CCC(C)C1(O)C=CC(=O)C21C (stereo unspecified) | – | > 10 | – | – | > 10 | > 10 | – | – | > 10 | – | > 10 | – | > 10 | – | > 10 | – | > 10 | – | > 10 | –
COc1cc(C2=NN(C(C)=O)C(c3cc(OC)c(OC)c(OC)c3)C2)ccc1O (stereo unspecified) | – | – | 0.273 | 0.571 | > 100 | > 100 | 0.0985 | 0.723 | > 100 | 0.478 | > 100 | 0.539 | > 100 | 0.275 | – | 0.26 | 7.52 | 23.6 | – | > 35.4
